Measured values: patent publication US20210254056A1, “IDENTIFICATION AND TARGETED MODULATION OF GENE SIGNALING NETWORKS” (CAMP4 THERAPEUTICS CORPORATION, priority 2017, published 2021)

Tested on: hepatocytes
Assay: RNA-seq of hepatocytes treated with Phase III failure compounds
Method: RNA-seq was performed to determine the effects of the compounds on hepatocytes.
Significance was determined by the criteria of FPKM≥0.5, a log 2(fold-change)≥1, and a […].

Compound: CCC(CC)[C@H](NC(C)=O)[C@@H]1[C@H](O)[C@@H](C(=O)O)C[C@H]1NC(=N)N.O.O.O [peramivir (trihydrate), peramivir]
- RNA-seq results, gene HYLS1 (HYLS1 expression in hepatocytes): −0.16
- RNA-seq results, gene ID1 (ID1 expression in hepatocytes): −0.69
- RNA-seq results, gene IDH1 (IDH1 expression in hepatocytes): 0.19
- RNA-seq results, gene IDH2 (IDH2 expression in hepatocytes): 0
- RNA-seq results, gene IDUA (IDUA expression in hepatocytes): 0.34
- RNA-seq results, gene IFIH1 (IFIH1 expression in hepatocytes): −0.06
- RNA-seq results, gene IFNAR2 (IFNAR2 expression in hepatocytes): 0.01
- RNA-seq results, gene IFT27 (IFT27 expression in hepatocytes): 0.27
- RNA-seq results, gene IFT80 (IFT80 expression in hepatocytes): −0.41
- RNA-seq results, gene IFT122 (IFT122 expression in hepatocytes): −0.16
- RNA-seq results, gene IFT140 (IFT140 expression in hepatocytes): 0.27
- RNA-seq results, gene IFT172 (IFT172 expression in hepatocytes): 0.16
- RNA-seq results, gene IGFALS (IGFALS expression in hepatocytes): 0.11
- RNA-seq results, gene IKBKG (IKBKG expression in hepatocytes): 0.3
- RNA-seq results, gene IL1RN (IL1RN expression in hepatocytes): 0.21
- RNA-seq results, gene IL2RG (IL2RG expression in hepatocytes): 0.6
- RNA-seq results, gene INSR (INSR expression in hepatocytes): 0.28
- RNA-seq results, gene INVS (INVS expression in hepatocytes): −0.03
- RNA-seq results, gene ISYNA1 (ISYNA1 expression in hepatocytes): −0.17
- RNA-seq results, gene ITGB3 (ITGB3 expression in hepatocytes): 0.27
- RNA-seq results, gene IYD (IYD expression in hepatocytes): −0.02
- RNA-seq results, gene JAG1 (JAG1 expression in hepatocytes): −0.1
- RNA-seq results, gene JAK2 (JAK2 expression in hepatocytes): −0.14
- RNA-seq results, gene KCTD7 (KCTD7 expression in hepatocytes): 0.11
- RNA-seq results, gene KCTD11 (KCTD11 expression in hepatocytes): −0.21
- RNA-seq results, gene KHK (KHK expression in hepatocytes): 0.03
- RNA-seq results, gene KIAA0586 (KIAA0586 expression in hepatocytes): −0.2
- RNA-seq results, gene KMT2D (KMT2D expression in hepatocytes): −0.05
- RNA-seq results, gene KPTN (KPTN expression in hepatocytes): 0.22
- RNA-seq results, gene KRIT1 (KRIT1 expression in hepatocytes): −0.1
- RNA-seq results, gene KRT18 (KRT18 expression in hepatocytes): −0.47
- RNA-seq results, gene KYNU (KYNU expression in hepatocytes): 0.16
- RNA-seq results, gene LAMB2 (LAMB2 expression in hepatocytes): 0.01
- RNA-seq results, gene LCAT (LCAT expression in hepatocytes): 0.11
- RNA-seq results, gene LDHB (LDHB expression in hepatocytes): −0.34
- RNA-seq results, gene LDLR (LDLR expression in hepatocytes): 0.24
- RNA-seq results, gene LDLRAP1 (LDLRAP1 expression in hepatocytes): 0.2
- RNA-seq results, gene LIPC (LIPC expression in hepatocytes): −0.29
- RNA-seq results, gene LIPT1 (LIPT1 expression in hepatocytes): −0.12
- RNA-seq results, gene LMNB2 (LMNB2 expression in hepatocytes): 0.14
- RNA-seq results, gene LPA (LPA expression in hepatocytes): 0.07
- RNA-seq results, gene LPIN1 (LPIN1 expression in hepatocytes): 0.22
- RNA-seq results, gene LPIN2 (LPIN2 expression in hepatocytes): 0.1
- RNA-seq results, gene LRBA (LRBA expression in hepatocytes): −0.32
- RNA-seq results, gene LRP5 (LRP5 expression in hepatocytes): 0.15
- RNA-seq results, gene LYRM4 (LYRM4 expression in hepatocytes): 0.19
- RNA-seq results, gene LYST (LYST expression in hepatocytes): −0.14
- RNA-seq results, gene MAN1A1 (MAN1A1 expression in hepatocytes): −0.26
- RNA-seq results, gene MAN2B1 (MAN2B1 expression in hepatocytes): 0.13
- RNA-seq results, gene MAOB (MAOB expression in hepatocytes): −0.16
- RNA-seq results, gene MAT1A (MAT1A expression in hepatocytes): 0.3
- RNA-seq results, gene MBL2 (MBL2 expression in hepatocytes): −0.47
- RNA-seq results, gene MCCC1 (MCCC1 expression in hepatocytes): 0.01
- RNA-seq results, gene MCCC2 (MCCC2 expression in hepatocytes): −0.2
- RNA-seq results, gene MCM6 (MCM6 expression in hepatocytes): −0.05
- RNA-seq results, gene MEN1 (MEN1 expression in hepatocytes): 0.15
- RNA-seq results, gene MET (MET expression in hepatocytes): −0.2
- RNA-seq results, gene MGAT2 (MGAT2 expression in hepatocytes): 0.09
- RNA-seq results, gene MKS1 (MKS1 expression in hepatocytes): 0.17
- RNA-seq results, gene MLH1 (MLH1 expression in hepatocytes): −0.06
- RNA-seq results, gene MMAA (MMAA expression in hepatocytes): −0.35
- RNA-seq results, gene MMAB (MMAB expression in hepatocytes): 0.27
- RNA-seq results, gene MMADHC (MMADHC expression in hepatocytes): −0.24
- RNA-seq results, gene MOCS1 (MOCS1 expression in hepatocytes): 0.13
- RNA-seq results, gene MOGAT2 (MOGAT2 expression in hepatocytes): −0.04
- RNA-seq results, gene MOGS (MOGS expression in hepatocytes): 0.24
- RNA-seq results, gene MPZ (MPZ expression in hepatocytes): 0.41
- RNA-seq results, gene MRPL3 (MRPL3 expression in hepatocytes): −0.06
- RNA-seq results, gene MTHFR (MTHFR expression in hepatocytes): 0.35
- RNA-seq results, gene MTM1 (MTM1 expression in hepatocytes): −0.13
- RNA-seq results, gene MTO1 (MTO1 expression in hepatocytes): −0.03
- RNA-seq results, gene MTR (MTR expression in hepatocytes): −0.08
- RNA-seq results, gene MTRR (MTRR expression in hepatocytes): −0.2
- RNA-seq results, gene MTTP (MTTP expression in hepatocytes): −0.29
- RNA-seq results, gene MVK (MVK expression in hepatocytes): 0.29
- RNA-seq results, gene MYH9 (MYH9 expression in hepatocytes): 0.02
- RNA-seq results, gene MYO5B (MYO5B expression in hepatocytes): 0.2
- RNA-seq results, gene NAGS (NAGS expression in hepatocytes): 0.46
- RNA-seq results, gene NARS2 (NARS2 expression in hepatocytes): −0.14
- RNA-seq results, gene NAT2 (NAT2 expression in hepatocytes): −0.1
- RNA-seq results, gene NBAS (NBAS expression in hepatocytes): −0.22
- RNA-seq results, gene NCF2 (NCF2 expression in hepatocytes): 0.47
- RNA-seq results, gene NEK1 (NEK1 expression in hepatocytes): 0.1
- RNA-seq results, gene NEK8 (NEK8 expression in hepatocytes): 0.29
- RNA-seq results, gene NEU1 (NEU1 expression in hepatocytes): 0.51
- RNA-seq results, gene NFKB2 (NFKB2 expression in hepatocytes): 0.12
- RNA-seq results, gene NFKBIA (NFKBIA expression in hepatocytes): −0.06
- RNA-seq results, gene NFU1 (NFU1 expression in hepatocytes): −0.04
- RNA-seq results, gene NGLY1 (NGLY1 expression in hepatocytes): −0.07
- RNA-seq results, gene NHP2 (NHP2 expression in hepatocytes): 0.21
- RNA-seq results, gene NME1 (NME1 expression in hepatocytes): 0.06
- RNA-seq results, gene NOD2 (NOD2 expression in hepatocytes): 0.33
- RNA-seq results, gene NOP10 (NOP10 expression in hepatocytes): 0.2
- RNA-seq results, gene NOTCH1 (NOTCH1 expression in hepatocytes): 0.16
- RNA-seq results, gene NOTCH2 (NOTCH2 expression in hepatocytes): −0.03
- RNA-seq results, gene NPC1 (NPC1 expression in hepatocytes): 0.3
- RNA-seq results, gene NR1H4 (NR1H4 expression in hepatocytes): 0.22
- RNA-seq results, gene NUBPL (NUBPL expression in hepatocytes): −0.06
- RNA-seq results, gene NUDT7 (NUDT7 expression in hepatocytes): −0.23
- RNA-seq results, gene NUDT12 (NUDT12 expression in hepatocytes): −0.17
- RNA-seq results, gene OAT (OAT expression in hepatocytes): 0.1
- RNA-seq results, gene OPA3 (OPA3 expression in hepatocytes): 0.03
- RNA-seq results, gene OTC (OTC expression in hepatocytes): −0.18
- RNA-seq results, gene PAF1 (PAF1 expression in hepatocytes): 0.09
- RNA-seq results, gene PAH (PAH expression in hepatocytes): 0.05
- RNA-seq results, gene PANK2 (PANK2 expression in hepatocytes): −0.22
- RNA-seq results, gene PAOX (PAOX expression in hepatocytes): 0.16
- RNA-seq results, gene PC (PC expression in hepatocytes): 0.17
- RNA-seq results, gene PCCA (PCCA expression in hepatocytes): 0.13
- RNA-seq results, gene PCK2 (PCK2 expression in hepatocytes): 0.46
- RNA-seq results, gene PCSK9 (PCSK9 expression in hepatocytes): 0.26
- RNA-seq results, gene PCYT1A (PCYT1A expression in hepatocytes): 0.09
- RNA-seq results, gene PDGFRA (PDGFRA expression in hepatocytes): −0.43
- RNA-seq results, gene PDP1 (PDP1 expression in hepatocytes): −0.04
- RNA-seq results, gene PEPD (PEPD expression in hepatocytes): 0.32
- RNA-seq results, gene PEX11A (PEX11A expression in hepatocytes): 0.02
- RNA-seq results, gene PEX12 (PEX12 expression in hepatocytes): 0.11
- RNA-seq results, gene PEX14 (PEX14 expression in hepatocytes): 0.15
